In patent publication US7166744B2, “Retinoid derivatives and methods for producing said compounds and anti-cancer pharmaceutical composition comprising said compounds” (Chebigen Co., Ltd., priority 2001, dated 2007):
“Also recorded” adds a separate entry of the source.

What was measured:
Type in all cases: cell-based
various cancer cells = experiment: MTT proliferation assay, summary over various cancer cells; details: Table 2
Experimental: The effects of test compounds on proliferation of various cancer cells was examined by 3-(4,5-dimethylthiazol-2-yl)-2,5-diphenyltetrazolium bromide (MTT, Sigma) assay in a dose dependent manner. In the MTT assay, colon, liver, cervix, ovary, and breast cancer cell lines were treated with test compounds at various concentrations. Living cancer cells reduce MTT to dark blue MTT formazan that would be measured by absorbance.
Colon cancer cells, HCT116, DLD-1 and HT29, cervix cancer cells, HeLa and CaSki, ovary cancer cells, SKOV-3, 2774 and OVCAR-3, liver cancer cells, SK-Hep-1, PLCPRF5 and HepG2, and breast cancer cells, ZR75-1 and MDA-MB 231 were seeded at an initial density of 3000 cells per well in 96-well plates. After attachment of cells to the walls of the wells, the medium containing fresh retinoid was treated with various concentrations (0.5 μM, 1 μM, 2.5 μM, 5 μM, 10 μM) for 48 hours. 50 μl of MTT solution (2 mg/ml in PBS) was added to cell culture media. The reaction micture was incubated at 37° C. in a 5% CO2 atmosphere for 4 hours. The supernatant was removed and 150 μl of DMSO was added. The optical density was measured spectrophotometrically at 550 nm. […] For other retinoid derivatives according to the present invention, absorbances were measured by this procedure and IC50 values, concentrations required for 50% growth inhibition, were determined.

RARs and RXRs = experiment: CAT reporter assay, summary for RARs and RXRs (Experimental Example 9); details: 1 μM
Source text: In order to confirm the effect of KCBG60 according to the present invention on retinoid receptor activity, cells were cotransfected with expression vectors of receptor subfamilies and reporter genes. As the reporter gene, chloramphenicol acetyltransferase (CAT) with a transcription control site reactive to respective receptors was used.
In the transcriptional activity for RXR type receptors, similar results were obtained.

cancer cells [1] = experiment: FACS analysis of DNA content; details: 10 μM, 96 hours
Source text: In order to quantitatively determine the levels of apoptosis, the cells treated with the same conditions as above were subjected to FACS analysis to measure DNA contents (FIG. 11).

[2] = system: HCT116 colon cancer cells; experiment: Optical microscopy of treated cells, HCT116; details: HCT116, 5 μM, 48 hours, compared to HPR
Experimental: (§1) Both colon cancer HCT116 cells and breast cancer MCF-7 cells were treated with 5 μM of the retinoid derivatives KCBG10 and KCBG41 for 48 hours, and photographed by optical microscope (×200). As a control compound, HPR was used at the same concentration. In FIG. 2, the control represents non-treated cells.

[3] = system: MCF-7 breast cancer cells; experiment: Optical microscopy of treated cells, MCF-7; details: MCF-7, 5 μM, 48 hours, compared to HPR
Experimental: as §1

[4] = system: PARP (poly(ADP-ribose)polymerase) and CPP32 (caspase-3) cleavage in HCT 116 cells; experiment: Western blotting of PARP and CPP32 cleavage; details: 5 μM
Experimental: FIG. 6 is the cleavage results of PARP and CPP-32, by a Western blotting analysis, derived from colon cancer cells HCT 116 to which the respective retinoid derivatives were treated.
By DAPI (4,6-diamidino-2-phenylindole) staining assay for staining DNA in cellular nucleus, nuclear condensation and fragmentation, characteristic features of apoptosis, were observed. […] In FIG. 4, the control represents non-treated cells. The sub-G1 DNA contents of colon cancer HTC116 cells and breast cancer MCF-7 cells were measured by FACS (Fluorescence-Activated Cell Sorter) assay to quantify the apoptosis (FIG. 5). Finally, in order to further characterize the apoptosis observed in retinoid derivative-treated cells, the cleavage of apoptosis-related proteins, including PARP (poly(ADP-ribose)polymerase) and CPP32 (caspase-3) by Western blotting. […] PARP cleavage occurred in a time-dependent manner, in parallel with the induction of apoptosis (FIG. 6B). C in FIG. 6 represents the result of Western blotting of non-treated cells.

[5] = system: RAR subfamilies (RARα, RARβ, RARγ); experiment: CAT ELISA reporter assay of retinoid receptors (Experimental Example 4)
Experimental: As the reporter gene, chloramphenicol acetyltransferase (CAT) gene was used. […] The colon cancer cells were plated at 10^6 in 6-well. At next day, the mixture of DNA (2 μg) and SuperFect reagent was added to the cells. After overnight transfection, the media were exchanged with fresh media containing retinoid at various concentrations for 24 hours and washed with cold 1×PBS. The cells were collected, suspended in 100 μl of 0.25M Tris-HCl (pH 7.6) and lysed by 3 freezing-thawing cycles. After centrifugation (12,000×g, 10 min, 4° C.), 100 μl of the supernatant was recovered. 10 μl of the recovered supernatant was tested for activity of β-galactosidase according to standard prosedures (Sambrook et al., 1989) and 50 μl of the recovered supernatant were tested for activity of the reporter by the CAT ELISA (Boeringer Mannheim, Germany) method. The obtained data for activity of the reporter was normalized with respect to β-gal activity for comparison.

MMP-3 mRNA expression = experiment: RT-PCR of MMP-3 mRNA in HCT116; details: HCT116, 1 μM, 36 hours
Experimental: Previously, it was shown that the synthetic retinoid derivatives inhibit the transcriptional activity of AP-1. Also, it is well known that MMP (matrix metalloproteinase), a main target gene of AP-1 is involved in metastasis of cancer cells. Therefore, the inhibitive effects of the retinoid derivatives on metastasis of cancer was examined by RT-PCR analysis. Colon cancer HCT116 cells were treated with 1 μM retinoid for 36 hours. RNA was isolated from the cells and mRNA expression levels of MMP-1, -2 and -3 were analyzed by RT-PCR. […] As the control, GAPDH was used and it was confirmed that its expression was not affected by retinoid. Meanwhile, the expression level of MMP-3 was affected weakly by KCBG40, intermediately by KCBG41 but strongly by KCBG10 (FIG. 9).

cancer cells [6] = experiment: Acridine orange / ethidium bromide double staining; details: 10 μM, 96 hours
Source text: Therefore, the anti-proliferation effect of KCBG60 is due to the induction of apoptosis.

Compound	relative rate of dead cells having a DNA content of 2N or less (cancer cells [1])	number of viable cancer cells (microscopy) [2]	number of viable cancer cells (microscopy) [3]	cleavage of PARP and CPP32 (Western blotting) [4]	effect on MMP-3 mRNA expression level (MMP-3 mRNA expression)	acridine orange / ethidium bromide staining colour of cells (cancer cells [6])	other results
CC1=C(/C=C/C(C)=C/C=C/C(C)=C/C(=O)O)C(C)(C)CCC1 [ATRA, All-trans-retinoic acid, reference compound]	–	–	–	–	–	–	anti-cancer activity in cells other than HepG (various cancer cells): very a low anti-cancer activity
CC1=C(/C=C/C(C)=C/C=C/C(C)=C/C(=O)Nc2ccc(O)cc2)C(C)(C)CCC1 [HPR, (2E,4E,6E,8E)-[3,7-dimethyl-9-(2,6,6-trimethylcyclohex-1-enyl)-nona-2,4,6,8-tetraenoylamino]-4-hydroxyphenylamide]	much higher rates than other groups	–	–	–	–	–	activity relative to ATRA for all 3 RARs (RARs and RXRs): about 50%
CCCC(=O)Oc1cc(O)ccc1NC(=O)/C=C(C)/C=C/C=C(C)/C=C/C1=C(C)CCCC1(C)C [KCBG10, 2.2-[(2E,4E,6E,8E)-3,7-Dimethyl-9-(2,6,6-trimethylcyclohex-1-enyl)-nona-2,4,6,8-tetraenoylamino]-5-hydroxyphenylbutanoate]	–	significant reductions in the number of viable cancer cells	significant reductions in the number of viable cancer cells; also recorded: kills MCF-7 cells much more than other derivatives	induced the cleavage of the proteins	strongly	–	retinoid receptor activity (CAT reporter) ([5]; concentration dependence): did not have activity at a low concentration but showed an increase of activity as the concentration increased
CCCC(=O)Nc1cc(NC(=O)/C=C(C)/C=C/C=C(C)/C=C/C2=C(C)CCCC2(C)C)ccc1O [KCBG41, (2E,4E,6E,8E)-[3,7-dimethyl-9-(2,6,6-trimethylcyclohex-1-enyl)-nona-2,4,6,8-tetraenoylamino]-(3-butyrylamino-4-hydroxy)phenylamide]	–	significant reductions in the number of viable cancer cells; also recorded: more effective on HCT116 than other derivatives	significant reductions in the number of viable cancer cells	induced the cleavage of the proteins	intermediately	–	retinoid receptor activity relative to ATRA and HPR ([5]; three RAR subfamilies, as the concentration increased): about 50%
CCCC(=O)Oc1ccc(NC(=O)/C=C(C)/C=C/C=C(C)/C=C/C2=C(C)CCCC2(C)C)cc1 [KCBG60]	much higher rates than other groups	–	–	–	–	cells were stained with orange color	activity for RARs and RXRs (RARs and RXRs): activity as low as the control and phenyl butylate-treated group; also recorded: almost no activity for RARs and RXRs
phenyl butylate	–	–	–	–	–	cells remained normal green color	–
